In patent US10851075B2, “Stat3 pathway inhibitors and cancer stem cell inhibitors” (Sumitomo Dainippon Pharma Oncology, Inc., priority 2007, dated 2020):
Read-outs that look alike come from different tables or passages of the source.

What was measured:
H1299 cells = experiment: MTT cell viability, H1299; format: cell-based; conditions: Homo sapiens, NCI-H1299, MTT at 24 hours
Source text: (§1) Cell Culture: HeLa, DU145, H1299, DLD1, SW480, A549, MCF7, LN18, HCT116, HepG2, Paca2, Panel, LNcap, FaDu, HT29, and PC3 cells (ATCC, Manassas, Va.) were maintained in Dulbecco's Modified Eagle Medium (DMEM) (Invitrogen, Carlsbad, Calif.) supplemented with 10% fetal bovine serum (MS) (Gemini Bio-Products, West Sacramento, Calif.) and 5% penicillin/streptomycin/amphotercin B (Invitrogen).
(§2) Cell Viability Determination: For 3-(4,5 dimethylthiazol-2-yl)-2,5-diphenyltetrazolium (MTT) (Sigma-Aldrich, St. Louis, Mo.) analysis, cells were plated in 96 well plates at 10,000 cells per well. 24 hours after plating, compound was added to cells at indicated doses. 22 hours following compound addition, MTT was added to each well (0.5 mg/ml, final concentration) and plates were incubated for an additional 2 hours at 37° C., Medium was then aspirated and the formazan product was solubilized in 100 μl of isopropyl alcohol. The absorbance of each well was measured at 570 nm using a microplate reader.
(§3) Identification of compounds that are apoptotic to a broad spectrum of cancer cells in vitro. Cells plated in 96 well plates and treated with indicated compounds were subjected to MTT analysis at 24 hours following compound treatment to determine cell viability.

HeLa cells = experiment: MTT cell viability, HeLa; format: cell-based; conditions: Homo sapiens, MTT at 24 hours
Source text: as §1, §2, §3

DU145 cells = experiment: MTT cell viability, DU145; format: cell-based; conditions: Homo sapiens, DU-145, MTT at 24 hours
Source text: as §1, §2, §3

[1] = biological target: T1, Stat3 DNA-binding activity (Homo sapiens, UniProt P40763); experiment: Stat3 DNA binding assay (EMSA), HeLa nuclear extract; format: biochemical; conditions: for inhibition % 1 × MTT IC50: compound at 1 × MTT IC50, untreated Stat3 retarded band set as 100; for inhibition % 3 × MTT IC50: compound at 3 × MTT IC50, untreated Stat3 retarded band set as 100
T1 construct: endogenous in cells; host or cells: HeLa cells (nuclear extract)
T1 sequence (P40763 whole entry): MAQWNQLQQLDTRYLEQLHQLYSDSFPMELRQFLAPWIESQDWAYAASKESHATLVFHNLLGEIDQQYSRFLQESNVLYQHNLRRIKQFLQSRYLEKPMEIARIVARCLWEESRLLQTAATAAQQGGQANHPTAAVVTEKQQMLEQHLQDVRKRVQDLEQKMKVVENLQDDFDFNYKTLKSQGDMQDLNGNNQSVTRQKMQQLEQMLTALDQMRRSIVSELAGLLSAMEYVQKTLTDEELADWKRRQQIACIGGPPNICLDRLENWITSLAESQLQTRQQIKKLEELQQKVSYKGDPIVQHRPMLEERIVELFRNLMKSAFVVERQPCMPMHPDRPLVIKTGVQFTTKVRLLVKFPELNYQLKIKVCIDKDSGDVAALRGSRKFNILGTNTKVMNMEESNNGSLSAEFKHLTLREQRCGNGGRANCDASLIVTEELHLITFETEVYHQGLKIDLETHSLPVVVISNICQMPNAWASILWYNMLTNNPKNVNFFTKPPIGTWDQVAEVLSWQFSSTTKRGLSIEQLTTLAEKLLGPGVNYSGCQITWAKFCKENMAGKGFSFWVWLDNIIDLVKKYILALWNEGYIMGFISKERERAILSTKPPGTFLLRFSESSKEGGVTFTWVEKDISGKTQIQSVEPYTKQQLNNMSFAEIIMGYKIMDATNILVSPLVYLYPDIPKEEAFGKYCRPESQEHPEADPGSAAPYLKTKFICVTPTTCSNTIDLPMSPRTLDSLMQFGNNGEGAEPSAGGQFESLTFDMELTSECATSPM
Method: STAT3 DNA Binding Assay: Electrophoretic mobility shift assay (EMSA) was performed as described by the manufacturer (Li-Cor Biosciences, Lincoln, Nebr.). Briefly, nuclear extracts were made from HeLa cells using the NucBuster Protein Extraction Kit as described by the manufacturer (EMD Biosciences, San Diego, Calif.). 5 μg of nuclear extract was pre-incubated with the indicated dose of indicated compound for 30 minutes prior to a 15-minute incubation with the IR700-labeled consensus Stat3 oligonucleotide. Samples were then electrophoresed on a polyacrylamide gel and directly scanned using the Odyssey infrared imaging system (Li-Cor Biosciences). For the enzyme-linked immunosorbent assay (ELISA), 5 μg of nuclear extract was preincubated with indicated concentration of indicated compound for 30 minutes prior to the addition of biotinylated oligo (5′-Biotin-[…]-3′). Stat3-DNA complexes were then captured on streptavidin coated 96 well plates (Pierce, Rockford, Ill.). Bound complexes were then incubated with Stat3 polyclonal antibody (Santa Cruz Biotechnology, Santa Cruz, Calif.) followed by anti-rabbit HRP conjugated secondary antibody (GE Healthcare, Pittsburgh, Pa.). Bound antibody was then visualized by addition of TMB substrate (Pierce) and absorbance measured at 450 nm.
Inhibition of Stat3 DNA-binding activity. Nuclear extracts from HeLa cells, which contain constitutively activated Stat3 as detected by phoshporylation at the tyrosine 705 residue, were used to perform Stat3 EMSAs to monitor Stat3 DNA binding activity. Nuclear extracts were incubated with indicated compound prior to incubation with IR700-labeled Stat3 consensus oligonucleotide. Binding of Stat3 to the oligonucleotide was monitored by gel electrophoresis and detection using a LiCor Odyssey infrared scanner.
To calculate the inhibition %, the density of the untreated Stat3 retarded band (control) was set as 100 and the inhibition % was the difference between the control and the relative DNA binding activity of the drug-treated samples.

SW480 Hoechst SP cells = experiment: Anti-CSC MTT assay, SW480 Hoechst side population (SP) cells; format: cell-based; conditions: Homo sapiens, 48 h
Method: as §2
(§4) Hoechst Side Population: To identify and isolate side population (SP) and non-SP fractions, SW480 cells were removed from the culture dish with trypsin and EDTA, pelleted by centrifugation, washed with phosphate-buffered saline (PBS), and resuspended at 37° C. in Dulbecco's modified Eagle's medium (DMEM) containing 2% FBS and 1 rnM HEPES. The cells were then labeled with Hoechst 33342 (Invitrogen) at a concentration of 5 μg/mL. The labeled cells were incubated for 120 minutes at 37° C., either alone or with 50 μM verapamil (Sigma-Aldrich, St. Louis). After staining, the cells were suspended in Hanks' balanced saline solution (MISS; Invitrogen) containing 2% FBS and 1 mM HEPES, passed a through 40 μm mesh filter, and maintained at 4° C. until flow cytometry analysis. The Hoechst dye was excited at 350 nm, and its fluorescence was measured at two wavelengths using a 450 DF10 (450/20 nm band-pass filter) and a 675LP (675 nm long-pass edge filter) optical filter. The gating on forward and side scatter was not stringent, and only debris was excluded.
(§5) In order to test compounds for anti-CSC activity, freshly isolated CSCs (SW480 Hoechst SP cells or CD44^high FaDu cells) were exposed to a dose range (30-0.117 μM) of compound for 48 h before examining cell viability by MTT assay. IC50s were estimated by plotting the percentage of surviving cells. As shown in Table 7 and Table 8, the compounds of present invention can target cancer stem cells.

SW480 NSP cells = experiment: Anti-CSC MTT assay, SW480 non-SP (NSP) cells; format: cell-based; conditions: Homo sapiens, 48 h
Method: as §2, §4, §5

DLD1 cells = experiment: MTT cell viability, DLD1; format: cell-based; conditions: Homo sapiens, DLD-1; DLD1, Colon; MTT at 24 hours; Table 3
Source text: as §1, §2, §3

SW480 cells = experiment: MTT cell viability, SW480; format: cell-based; conditions: Homo sapiens; SW480, Colon; MTT at 24 hours; Table 3
Source text: as §1, §2, §3

Paca2 cells = experiment: MTT cell viability, Paca2; format: cell-based; conditions: PaCa-2; Paca2, Pancreas; MTT at 24 hours; Table 3
Source text: as §1, §2, §3

Panc1 cells = experiment: MTT cell viability, Panc1; format: cell-based; conditions: Homo sapiens, PANC-1; Panc1, Pancreas; MTT at 24 hours; Table 3
Source text: as §1, §2, §3

PC3 cells = experiment: MTT cell viability, PC3; format: cell-based; conditions: Homo sapiens, PC-3; PC3, Prostate; MTT at 24 hours; Table 3
Source text: as §1, §2, §3

[2] = test system: Stat3 transcription activity; experiment: Stat3-luciferase (Stat3-Luc) reporter assay in HeLa cells, OSM stimulated; format: cell-based; conditions: Homo sapiens, compound 30 minutes before 25 ng/ml oncostatin M, 6 hours, read-out: IC50 in Stat3-Luc assays
Method: Luciferase Reporter Assay: HeLa Cells were co-transfected with Stat3-luciferase (Stat3-Luc) reporter vector (Panomics, Fremont, Calif.) and Renilla luciferase (Promega, Madison, Wis.) using Lipofectamine 2000 as described by the manufacturer (Invitrogen). Following transfection, cells were maintained in medium containing 0.5% FBS for 24 hours. Cells were then treated with the indicated compound for 30 minutes prior to the addition of 25 ng/ml oncostatin M (OSM) (R&D Systems, Minneapolis, Minn.) to the medium. 6 hours following OSM addition, cells were harvested and levels of firefly and renilla luciferase were measured using the Dual-Glo Luciferase Assay System as described by the manufacturer (Promega).
Inhibition of Stat3 transcription activity. Compounds were tested for their ability to inhibit Stat3 transcription activation activity in cells using a Stat3-luciferase (Stat3-luc) reporter construct. Cells transfected with Stat3-luc were cultured in reduced serum medium prior to addition of indicated compound for 30 minutes. Cells were then stimulated with 25 ng/ml oncostatin (OSM) for 6 hours followed by detection of Stat3-luc reporter activity.

[3] = H1299, Table 4, read-out: IC50 (μM) H1299
[4] = Hela, Table 4, read-out: IC50 (μM) Hela
[5] = DU145, Table 4, read-out: IC50 (μM) DU145

| SMILES | IC50 (H1299 cells; [3]) [µM] | IC50 (HeLa cells; [4]) [µM] | IC50 (DU145 cells; [5]) [µM] | also measured |
| --- | --- | --- | --- | --- |
| CCc1cc2c(o1)C(=O)c1ccccc1C2=O [Compound 101] | 3 to 10 | 11.7 | 3.7 | – |
| Cc1cc2c(o1)C(=O)c1ccccc1C2=O [Compound 102] | – | 11.4 | – | – |
| O=C1c2ccccc2C(=O)c2oc(Cc3ccccc3)cc21 [Compound 103] | 8.9 | 16.7 | > 10 | inhibition % 1 × MTT IC50 [1]: 98%; inhibition % 3 × MTT IC50 [1]: 26% |
| CCc1cc2c(o1)C(=O)c1cc(Cl)ccc1C2=O [Compound 105] | 8.4 | 13 | 6.5 | – |
| CCc1cc2c(o1)C(=O)c1cc(F)ccc1C2=O [Compound 106] | – | – | 4.84 | inhibition % 1 × MTT IC50 [1]: 26%; inhibition % 3 × MTT IC50 [1]: 51%; IC50 (SW480 Hoechst SP cells): 4.44 µM; IC50 (SW480 NSP cells): 2 µM |
| Cc1oc2c(c1-c1ccccc1)C(=O)c1ccccc1C2=O [Compound 108] | – | 20.7 | 30.8 | – |
| C=Cc1cc2c(o1)C(=O)c1ccccc1C2=O [Compound 201] | – | – | 1.76 | – |
| CC(O)c1cc2c(o1)C(=O)c1ccccc1C2=O (stereo not shown) [Compound 301] | 0.794 | 3.36 | – | inhibition % 1 × MTT IC50 [1]: 20%; inhibition % 3 × MTT IC50 [1]: 26% |
| CC(=O)OC(C)c1cc2c(o1)C(=O)c1ccccc1C2=O (stereo not shown) [Compound 303] | – | – | 2.88 | – |
| CC(=O)OC(C)c1cc2c(o1)C(=O)c1cc(F)ccc1C2=O (stereo not shown) [Compound 305] | – | 1.71 | 1.1 | – |
| O=C(c1ccccc1)c1cc2c(s1)C(=O)c1ccccc1C2=O [Compound 402] | 1.04 | 2.01 | 0.554 | IC50 (H1299 cells; H1299, Lung, Table 3, read-out: IC50): 1.04 µM; IC50 (HeLa cells; HeLa, Cervix, Table 3, read-out: IC50): 2.01 µM; IC50 (DLD1 cells): 2510 nM; IC50 (SW480 cells): 1490 nM; IC50 (Paca2 cells): 490 nM; IC50 (Panc1 cells): 7210 nM; IC50 (DU145 cells; DU145, Prostate, Table 3, read-out: IC50): 0.55 µM; IC50 (PC3 cells): 8480 nM; IC50 [2]: ~750 nM; inhibition % 1 × MTT IC50 [1]: 29%; inhibition % 3 × MTT IC50 [1]: 57%; IC50 (SW480 Hoechst SP cells): 0.4 µM; IC50 (SW480 NSP cells): 0.38 µM |
| O=C(c1ccc([N+](=O)[O-])cc1)c1cc2c(s1)C(=O)c1ccccc1C2=O [Compound 403] | 4 | – | 6.5 | – |
| O=C(O)c1cc2c(o1)C(=O)c1ccccc1C2=O [Compound 405] | – | – | 1.41 | – |
| COc1ccc(C(=O)c2cc3c(s2)C(=O)c2ccccc2C3=O)cc1 [Compound 407] | 4.11 | 3.78 | 2.1 | IC50 [2]: ~5000 nM |
| O=C(c1ccc(O)cc1)c1cc2c(s1)C(=O)c1ccccc1C2=O [Compound 408] | 3.62 | 4.47 | 0.554 | IC50 [2]: ~2000 nM |
| CC(=O)c1cc2c(s1)C(=O)c1ccccc1C2=O [Compound 409] | 1.03 | 1.88 | 0.442 | IC50 [2]: ~2000 nM |
| COc1ccc(C(=O)c2cc3c(s2)C(=O)c2ccccc2C3=O)cc1OC [Compound 410] | 1.88 | 2.52 | 0.239 | IC50 [2]: ~1000 nM |
| O=C(c1ccc(O)c(O)c1)c1cc2c(s1)C(=O)c1ccccc1C2=O [Compound 411] | 14.1 | 14.7 | 0.616 | – |
| COc1ccc(C(=O)c2cc3c(o2)C(=O)c2ccccc2C3=O)cc1OC [Compound 413] | 1.9 | 4.38 | 0.721 | – |
| O=Cc1cc2c(o1)C(=O)c1ccccc1C2=O [Compound 414] | 11.3 | 13 | 14.1 | – |
| O=C(c1ccccc1)c1cc2c(o1)C(=O)c1cc(Br)ccc1C2=O [Compound 415] | 6.5 | 10.5 | 9.8 | – |
| O=C(c1cccc(Cl)c1)c1cc2c(o1)C(=O)c1ccccc1C2=O [Compound 417] | – | – | 0.768 | – |
| O=C(c1ccccc1)c1cc2c(o1)C(=O)c1cc(F)ccc1C2=O [Compound 419] | – | – | 1.82 | – |
